Assay results as given in paper PMC8715118, “Assessing potentiation of the (α4)3(β2)2 nicotinic acetylcholine receptor by the allosteric agonist CMPI” (The Journal of Biological Chemistry, 2021).
Where “and” joins values, the source holds several entries; their conditions need not be identical. Equal values may be shown once.

What was measured:
nAChR = test system: nAChR; set-up: method as in PMID 1378342; details: nonselective, allosteric antagonist; cited from earlier work
(α4)3(β2)2 nAChR [1] = target: T1, (α4)3(β2)2 nAChR (Homo sapiens, UniProt P17787+P43681); test: Two-electrode voltage-clamp whole-cell currents, Xenopus oocytes expressing WT (α4)3(β2)2 nAChR; format: cell-based
T1 construct: expressed in transfected cells; host or cells: Xenopus laevis oocytes injected with cRNA, 8:1 α4:β2
Procedure: Oocytes-positive female Xenopus laevis were purchased from NASCO, and all procedures were performed according to an animal use protocol approved by the Institutional Animals Care and Use Committee of The University of Texas Health Science Center at Tyler. Ovarian lobules were surgically harvested, treated with collagenase type 2, and Stage V and VI oocytes were visually selected and maintained at 18 °C in modified ND96-gentamicin buffer (96 mM NaCl, 2 mM KCl, 1.8 mM CaCl2, 1 mM MgCl2, 5 mM Hepes, and 50 μg/ml gentamicin, pH 7.6).
pSP64 Poly(A) plasmids with cDNA encoding for human α4 or β2 nAChR subunit were used to prepare cRNA transcripts suitable for oocyte expression. The plasmids were linearized with AseI (hα4) and PvuII (hβ2), then cRNA transcripts were prepared in vitro using mMESSAGE mMACHINE high yield-capped RNA transcription kits (Ambion, Thermo Fisher Scientific), purified on NucAway Spin column (Invitrogen, Thermo Fisher Scientific), and stored at −80 °C until used. Point mutations within the plasmid encoding the α4 nAChR subunit were introduced using QuikChange II Site-Directed Mutagenesis Kit (Agilent Technologies), as described previously ([28]). To generate amino acid substitutions (K64T, E66I, H116V, H116L, and H116A), two custom-designed complementary oligos containing the desired mutation were used (Integrated DNA Technologies). The forward primers were as the following with the codon for mutated amino acids are underlined and nucleotide(s) changes are bolded and italicized:
The oocytes were injected with 10 to 50 ng of a cRNA mix containing α4 (WT or mutant) and β2 RNAs at ratios of 8:1(α4:β) or 1:8 (α4:β2) to bias expression toward (α4)3(β2)2 or (α4)2(β2)3 nAChRs, respectively. The injection of oocytes with RNAs mixture containing four folds or higher α4 RNA than β2 RNA have been established to express receptor population that is made up of three α4 and two β2 subunits ([9], [12], [28], [43], [44], [45]).
24 to 72 h after cRNA injection, Xenopus oocytes were placed in a custom-made recording chamber that is connected to an eight-channel automated perfusion system (Warner Instruments) and perfused with recording buffer (100 mM NaCl, 2 mM KCl, 1 mM CaCl2, 0.8 mM MgCl2, 1 mM EGTA, and 10 mM Hepes, pH 7.5). Unless otherwise specified in figure legends, each recording run included several drug applications (10 s of an agonist with or without CMPI or NS9283) separated by 3 to 4 min buffer wash intervals. Between recording runs, the oocytes were washed with recording buffer for at last 5 min. The oocytes were voltage-clamped at −50 mV using Oocyte Clamp OC-725B (Warner Instruments). The currents were digitized using Digidata 1550A (Axon Instruments, Molecular Devices), and the peak currents were quantified using pCLAMP 10 (Axon Instruments), then normalized and analyzed using Excel 2010 (Microsoft) and SigmaPlot 11.0 (Systat Software). For NS9283 and CMPI potentiation of agonist-induced responses, the peak currents were normalized to current elicited by agonist alone applied within the same recording run. For the effect of coapplication of 1 μM NS9283 or CMPI on agonist concentration-response curve, the peak currents were normalized to current elicited by saturating concentration of agonist applied within the same recording run. […] I0 = 100 for NS9283 and CMPI potentiation of agonist-induced responses and I0 = 0 for agonist concentration-response experiments. The best-fit values for Imax and EC50 ± SD are presented.

(α4)3(β2)2 nAChR [2] = target: T1, (α4)3(β2)2 nAChR; test: Mechanistic (Monod-Wyman-Changeux two-state model) analysis of current responses, WT (α4)3(β2)2 nAChR; format: cell-based; details: for peak PA: calculated with Equation 2
Description: To gain mechanistic insight into receptor activation in the presence of CMPI, we analyzed the currents in the framework of a cyclic two-state (resting and active) allosteric activation model ([31], [32], [33]). In this model, channel opening is mediated by stabilization of the active state by an agonist that, by definition, has higher affinity to the active than resting state.
We commenced by converting the raw amplitudes of current responses to units of probability of being in the active state (PA units).
Further analysis of electrophysiological data was conducted in the framework of the two-state concerted transition model, adapted from the MWC cyclic model originally used to describe enzyme function ([31], [32], [33]). The raw peak amplitudes of current responses were converted to units of probability of being in the active state (PA).
The numbers of α4:β2 and α4:α4 binding sites (Nα4:β2 and Nα4:α4) were constrained to 2 and 1, respectively.
The concentration-response curve for TC-2559 was fitted to the following equation:(3) PA=1/1+L[1+[TC-2559]/KR,TC-2559,α4:β2/1+[TC-2559]/(KR,TC-2559,α4:β2cTC-2559,α4:β2)]^Nα4:β2
The concentration-response data were analyzed using Equation 3, with the value of L modified to reflect receptor activation by TC-2559, and the affinity and efficacy terms in the equation reflecting the values for CMPI. The number of binding sites for CMPI in Equation 3 was constrained to 1.
Curve fitting was done using Origin 2020 (OriginLab Corp). The results are reported as best-fit parameter ±SD of the fit. All data are included in the analysis.

T1 sequence (P43681 27-627): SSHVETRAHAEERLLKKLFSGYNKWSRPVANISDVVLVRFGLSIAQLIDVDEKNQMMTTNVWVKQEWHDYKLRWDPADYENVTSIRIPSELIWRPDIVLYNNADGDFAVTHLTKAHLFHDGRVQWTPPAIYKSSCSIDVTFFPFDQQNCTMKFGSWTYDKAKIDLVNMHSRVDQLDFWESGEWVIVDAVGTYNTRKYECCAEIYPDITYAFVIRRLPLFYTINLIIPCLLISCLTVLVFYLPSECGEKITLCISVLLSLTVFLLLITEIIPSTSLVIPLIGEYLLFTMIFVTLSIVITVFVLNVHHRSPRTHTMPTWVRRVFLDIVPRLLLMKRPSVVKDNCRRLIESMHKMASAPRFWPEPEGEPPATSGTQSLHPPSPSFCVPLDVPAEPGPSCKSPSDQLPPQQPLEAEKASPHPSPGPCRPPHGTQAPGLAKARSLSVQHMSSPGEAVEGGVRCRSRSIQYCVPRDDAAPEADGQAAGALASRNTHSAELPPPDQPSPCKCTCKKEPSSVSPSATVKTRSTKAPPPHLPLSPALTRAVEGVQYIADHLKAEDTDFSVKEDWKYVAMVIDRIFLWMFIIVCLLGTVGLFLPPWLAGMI
T1 sequence (P17787 26-502): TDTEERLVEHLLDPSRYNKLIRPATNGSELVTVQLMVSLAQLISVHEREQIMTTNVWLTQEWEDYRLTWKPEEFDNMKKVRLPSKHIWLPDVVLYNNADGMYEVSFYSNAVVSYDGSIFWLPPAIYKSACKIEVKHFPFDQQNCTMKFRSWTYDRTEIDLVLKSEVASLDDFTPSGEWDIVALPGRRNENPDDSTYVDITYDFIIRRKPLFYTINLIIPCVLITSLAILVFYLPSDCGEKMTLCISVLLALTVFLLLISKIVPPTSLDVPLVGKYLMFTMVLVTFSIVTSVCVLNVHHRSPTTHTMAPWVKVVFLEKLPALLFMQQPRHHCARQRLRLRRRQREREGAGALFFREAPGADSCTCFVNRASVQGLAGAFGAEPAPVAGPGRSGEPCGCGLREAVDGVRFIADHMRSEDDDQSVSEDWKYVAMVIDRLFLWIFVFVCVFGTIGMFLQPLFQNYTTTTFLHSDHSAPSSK

With `CNC1(C)C2CCC(C2)C1(C)C` (centres unmarked) [mecamylamine] as the molecule, how does the IC50s (nAChR) read?
The IC50s was “submicromolar range”.

What about the “outward current, mean amplitude, % of the absolute response to 1 mM ACh” value ((α4)3(β2)2 nAChR [1]; 100 μM mecamylamine, holding current) of the same molecule?
Its value is 2.1 ± 0.5%.

Which “current response produced by a saturating concentration (100 μM), % of current elicited by 1 mM ACh” value ((α4)3(β2)2 nAChR [1]; 100 μM agonist) does the source give for `CN1CCC[C@H]1c1cccnc1` [nicotine] here?
Its value is 73 ± 3%.

And the “current response at subsaturating concentration, % of the current response to 1 mM ACh” value ((α4)3(β2)2 nAChR [1]; subsaturating (1 μM) agonist)?
The value was 2.9 ± 0.4%.

With `C=CC(C)(C)c1[nH]c2cc(Br)ccc2c1CCNC` [dFBr, desformylflustrabromine] as the molecule, how does the “peak response to 1 mM ACh, % of control” value ((α4)3(β2)2 nAChR [1]; 1 mM ACh + 3 μM dFBr) read?
Its value is 278 ± 36%.

For `CC(=O)OCC[N+](C)(C)C` [ACh, Acetylcholine chloride], which “PA,1 mM ACh (peak probability of being in the active state)” value ((α4)3(β2)2 nAChR [2]; 1 mM ACh, normalized to 1 mM ACh + 3 μM dFBr) is on record?
Its value is 0.36 ± 0.05 and 0.36.

What about the “free energy change toward stabilization of the active state (ΔGgating)” value ((α4)3(β2)2 nAChR [2]; binding to the single α4:α4 site) of the same molecule?
Its value is -1.27 kcal/mol.

And the “free energy change toward stabilization of the active state (ΔGgating,total)” value ((α4)3(β2)2 nAChR [2]; binding to the two α4:β2 sites)?
Its value is -1.69 kcal/mol.

What about the “peak PA” value ((α4)3(β2)2 nAChR [2]; occupation of the two α4:β2 sites and the single α4:α4 site with ACh) of the same molecule?
Its value is 0.36.

And the “peak PA” value ((α4)3(β2)2 nAChR [2]; occupation of the two α4:β2 sites with ACh)?
The value was 0.072.

What about the ΔGgating per site ((α4)3(β2)2 nAChR [2]; per α4:β2 site) of the same molecule?
The ΔGgating per site was -0.84 kcal/mol.
